The record followed here is PMC8899467 (Frontiers in Pharmacology, 2022).

One assay deals with T1, bovine fibrinogen (Bos taurus, UniProt P02672+P02676+P12799).
T1 construct: gene FGA; native plasma protein, Sigma-Aldrich; hexamer
T1 sequence (P02672 20-615): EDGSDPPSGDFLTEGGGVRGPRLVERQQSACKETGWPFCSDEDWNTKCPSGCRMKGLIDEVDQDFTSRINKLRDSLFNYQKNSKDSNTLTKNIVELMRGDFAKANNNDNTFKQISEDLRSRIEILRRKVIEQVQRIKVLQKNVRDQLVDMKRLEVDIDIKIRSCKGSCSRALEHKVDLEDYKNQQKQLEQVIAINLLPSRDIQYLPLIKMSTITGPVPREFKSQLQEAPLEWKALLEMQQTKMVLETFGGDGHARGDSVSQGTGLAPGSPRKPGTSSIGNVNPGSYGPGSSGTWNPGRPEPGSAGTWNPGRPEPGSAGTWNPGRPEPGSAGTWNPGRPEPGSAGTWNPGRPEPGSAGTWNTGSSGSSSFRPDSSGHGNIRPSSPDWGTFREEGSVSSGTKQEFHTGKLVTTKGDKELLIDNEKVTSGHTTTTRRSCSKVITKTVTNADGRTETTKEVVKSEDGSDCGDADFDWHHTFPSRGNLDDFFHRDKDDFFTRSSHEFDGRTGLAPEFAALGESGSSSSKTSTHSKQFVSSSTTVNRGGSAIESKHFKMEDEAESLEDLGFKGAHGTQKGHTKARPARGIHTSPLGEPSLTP
T1 sequence (P02676 1-468): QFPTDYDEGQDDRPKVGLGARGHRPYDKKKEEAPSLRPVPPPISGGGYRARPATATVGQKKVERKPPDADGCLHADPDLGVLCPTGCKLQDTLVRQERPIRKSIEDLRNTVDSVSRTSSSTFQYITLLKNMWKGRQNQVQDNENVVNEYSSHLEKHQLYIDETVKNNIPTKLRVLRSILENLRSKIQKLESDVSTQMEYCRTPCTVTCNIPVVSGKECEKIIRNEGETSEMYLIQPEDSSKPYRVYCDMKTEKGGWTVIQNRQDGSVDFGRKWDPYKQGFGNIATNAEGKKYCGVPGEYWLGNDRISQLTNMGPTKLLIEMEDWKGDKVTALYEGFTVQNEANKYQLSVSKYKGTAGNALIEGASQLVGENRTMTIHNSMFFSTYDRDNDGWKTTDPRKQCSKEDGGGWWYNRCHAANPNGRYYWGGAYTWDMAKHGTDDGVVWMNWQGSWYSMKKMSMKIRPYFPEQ
T1 sequence (P12799 25-444): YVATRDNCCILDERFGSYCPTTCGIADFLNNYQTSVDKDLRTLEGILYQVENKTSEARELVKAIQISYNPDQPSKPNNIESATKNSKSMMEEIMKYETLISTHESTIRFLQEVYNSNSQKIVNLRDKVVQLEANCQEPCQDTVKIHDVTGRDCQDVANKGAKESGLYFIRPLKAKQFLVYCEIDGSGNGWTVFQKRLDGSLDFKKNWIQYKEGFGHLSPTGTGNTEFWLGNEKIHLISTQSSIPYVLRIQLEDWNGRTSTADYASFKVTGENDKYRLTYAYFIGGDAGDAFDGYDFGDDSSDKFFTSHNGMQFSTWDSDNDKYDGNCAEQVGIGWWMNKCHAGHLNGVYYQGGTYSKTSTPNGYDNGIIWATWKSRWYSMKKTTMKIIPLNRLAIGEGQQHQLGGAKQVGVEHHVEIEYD
Description: intrinsic Trp fluorescence quenching. The settings on record: 0.8 mg/ml fibrinogen, Tyrode buffer pH 7.4, 37 °C, 15 min. The class given is binding.

Assay [1] concerns the target T2, bovine serum albumin (BSA) (Bos taurus, UniProt P02769).
T2 construct: gene ALB; native mature serum albumin
Description: intrinsic Trp fluorescence quenching. The format is binding. The settings on record: 0.8 mg/ml BSA, Tyrode buffer pH 7.4, 37 °C, 15 min.

T2 sequence (P02769 25-607): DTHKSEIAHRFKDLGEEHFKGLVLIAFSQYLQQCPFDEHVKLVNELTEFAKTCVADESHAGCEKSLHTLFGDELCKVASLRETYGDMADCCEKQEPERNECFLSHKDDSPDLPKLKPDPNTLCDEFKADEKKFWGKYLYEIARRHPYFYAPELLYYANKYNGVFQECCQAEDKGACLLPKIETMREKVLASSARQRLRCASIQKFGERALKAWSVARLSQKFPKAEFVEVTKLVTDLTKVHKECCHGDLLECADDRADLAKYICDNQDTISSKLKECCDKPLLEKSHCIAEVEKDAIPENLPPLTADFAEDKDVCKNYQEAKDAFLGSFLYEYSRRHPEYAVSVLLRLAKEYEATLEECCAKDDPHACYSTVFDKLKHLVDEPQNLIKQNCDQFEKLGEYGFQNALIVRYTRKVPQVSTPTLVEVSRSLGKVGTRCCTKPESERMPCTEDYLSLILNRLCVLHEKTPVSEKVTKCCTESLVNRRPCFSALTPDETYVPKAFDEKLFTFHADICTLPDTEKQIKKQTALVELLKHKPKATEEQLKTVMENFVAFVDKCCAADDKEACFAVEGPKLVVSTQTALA

In the case of `C[C@@H]1O[C@@H](OC[C@H]2O[C@@H](Oc3c(-c4ccc(O)c(O)c4)oc4cc(O)cc(O)c4c3=O)[C@H](O)[C@@H](O)[C@@H]2O)[C@H](O)[C@H](O)[C@H]1O` [rutin], the “intrinsic Trp fluorescence quenching” value is “Pre-incubation of rutin and RS with fibrinogen (Figures 6A,B) or albumin (Figures 6C,D) decreased the fluorescence” at bovine fibrinogen; “or albumin (Figures 6C,D) decreased the fluorescence of their Trp residues” in assay [1].
